Source: BindingDB's records for doi:10.1016/j.bmc.2009.11.062 (Medical University of Lublin, 2010)

Assay: Agonist activity beta2-adrenergic receptor in rat ventricular myocytes assessed as cell contraction following electrical stimulation by optical edge tracking method using photodiode array

SMILES | EC50 [µM]
CC[C@H](Cc1ccc(O)cc1)NC[C@H](O)c1cc(O)cc(O)c1 | 8.55
C[C@H](Cc1ccc2ccccc2c1)NC[C@H](O)c1cc(O)cc(O)c1 | 0.133
COc1ccc(C[C@@H](C)NC[C@H](O)c2cc(O)cc(O)c2)c2ccccc12 | 0.016
